The text below walks through data of the OligoGym collection.

Several values for one entry are separate records, joined by “and”; a condition that tells them apart may be missing. Identical values can stand only once. After the bases stand the sugars from the 5' end (letter, count) and the backbone: PS all phosphorothioate, else s phosphorothioate and o phosphodiester by linkage. Methylation of C is not given here. e = 2'-O-(2-methoxyethyl) (MOE); k = constrained ethyl (cEt); d = 2'-deoxy (DNA)

The target in the series is IRF4. The note with it: ASO.

TTGGCTCCTTTTTTGG (sugars k3 d10 k3, PS): the target mRNA inhibition (SK-MEL-28, 4 µM) amounted to 13%. In the case of “TAGTATGAGAAACGGC (sugars kdddddddddkekeke, PS)”, the target mRNA inhibition (MM.1R, 1 µM) worked out at 32%. For CATGTAGTTGTGAACC (sugars k3 d10 k3, PS), where the note is “SK-MEL-28, 4 µM”, the target mRNA inhibition was 27%. For the sequence TGCACTCGCGCAAAGG (sugars k3 d10 k3, PS), the target mRNA inhibition (SK-MEL-28, 4 µM) worked out at 28%.

ATGTGGAGCTCCTCCT (sugars k3 d10 k3, PS): under “SK-MEL-28, 4 µM”, the target mRNA inhibition stood at 20%. Still for that read-out and setting: next, GTACACCTCTTCACTA (sugars k3 d10 k3, PS): 7%; ATCGAATCTGCCCAAA (sugars k3 d10 k3, PS): 26%. For TATTTATGAGCTTCCA (sugars k3 d10 k3, PS), for the setting “MM.1R, 1 µM”, the target mRNA inhibition stood at 21%. Take ACTAATACCTACCTGC (sugars k3 d10 k3, PS): where the note is “SK-MEL-28, 4 µM”, the target mRNA inhibition came out at 48%.

On to GCCACAACTCTCGCCT (sugars k3 d10 k3, PS), for which, under “SK-MEL-28, 4 µM”, the target mRNA inhibition is 25%. As for AAGAACTGCTGTGTGT (sugars k3 d10 k3, PS), the target mRNA inhibition (SK-MEL-28, 4 µM) is 12%. Same read-out and setting: next, CTAAGCTTGATAAAGG (sugars k3 d10 k3, PS): 54%; ATATAGTTGTCTGGCT (sugars k3 d10 k3, PS): 41%.

GTTACCGCATTGCTAG (sugars k3 d10 k3, PS): where the note is “MM.1R, 1 µM”, the target mRNA inhibition was 16%.

Take GACCCACACCAGGAAA (sugars k3 d10 k3, PS): where the note is “SK-MEL-28, 4 µM”, the target mRNA inhibition amounted to 2%. Take ATTTACAGCATCTAAG (sugars k3 d10 k3, PS): under “SK-MEL-28, 4 µM”, the target mRNA inhibition came to 47%. Same read-out and setting: next, TAACAATACTGTAAGG (sugars k3 d10 k3, PS): 45%; AGCTTCTTTGAAGTGC (sugars k3 d10 k3, PS): 62%. As for GGGTTAAAGGAGTGCA (sugars k3 d10 k3, PS), under “MM.1R, 1 µM”, the target mRNA inhibition came to 0%. ATGTAAAGTCTGCTGA (sugars k3 d10 k3, PS): the target mRNA inhibition (MM.1R, 1 µM) was 20%. On the same count and under the same terms, next, GCTAGATTCTCCCTGC (sugars k3 d10 k3, PS): -13%. As to CTTTATCAAGACAAGG (sugars k3 d10 k3, PS), the target mRNA inhibition (SK-MEL-28, 4 µM) turned out to be 56%.

In the case of “CAGTTGTAAATGAGTC (sugars kkddddddddddkeke, PS)”, the target mRNA inhibition is 19% (MM.1R, 0.074 µM); 35% (MM.1R, 0.222 µM); 49% (MM.1R, 0.666 µM); 59% (MM.1R, 1 µM); 73% (MM.1R, 2 µM). Take GCCTTAATGGTGATTT (sugars k3 d10 k3, PS): the target mRNA inhibition (SK-MEL-28, 4 µM) stood at 26%. On the same count and under the same terms, next, GTCCCTCCAGCTTCGG (sugars k3 d10 k3, PS): 3%; AAGACCCCGTATCCCC (sugars k3 d10 k3, PS): 42%; GAAATAGCATCAGAGC (sugars k3 d10 k3, PS): 45%. As for CATGGGACATTGGTAC (sugars k3 d10 k3, PS), the target mRNA inhibition (MM.1R, 1 µM) stood at 18%. Regarding CCTGGTCCAGGTTGCT (sugars k4 d8 k4, PS), the target mRNA inhibition (SK-MEL-28, 4 µM) turned out to be 34%.

Regarding TGCCTCTGTTAGGTGA (sugars k3 d10 k3, PS), the target mRNA inhibition (SK-MEL-28, 4 µM) came out at 34%. As for ACTGGATTGATGTGAT (sugars k3 d10 k3, PS), the target mRNA inhibition was 2% and 9% (MM.1R, 0.0625 µM); 6% and 20% (MM.1R, 0.25 µM); 25% and 39% (MM.1R, 1 µM); 65% and 69% (MM.1R, 4 µM). Regarding “GATGTGATAGCTGAGC (sugars kkdddddddddkdkdk, PS)”, where the note is “MM.1R, 1 µM”, the target mRNA inhibition was 34%. As for CCAGGTTCATGCCCCG (sugars k3 d10 k3, PS), the target mRNA inhibition (SK-MEL-28, 4 µM) was found to be 54%. Same read-out and setting: next, AGAATAAACACCCCTT (sugars k3 d10 k3, PS): 74%. For TCCCACGAAGGGCAGT (sugars k3 d10 k3, PS), the target mRNA inhibition (SK-MEL-28, 4 µM) came out at 6%.

As to GTCTAAAGTCCCATCG (sugars k3 d10 k3, PS), the target mRNA inhibition (SK-MEL-28, 4 µM) stood at 40%. Take “GTTGTAAATGAGTCGG (sugars e1 k2 d9 k2 e2, PS)”: the target mRNA inhibition (MM.1R, 0.074 µM) was found to be 17%; the target mRNA inhibition (MM.1R, 0.222 µM) turned out to be 38%; the target mRNA inhibition (MM.1R, 0.666 µM) was determined as 57%; the target mRNA inhibition (MM.1R, 1 µM) came out at 69%; the target mRNA inhibition (MM.1R, 2 µM) is 79%. CCCAAAGAGAGTGGGT (sugars k3 d10 k3, PS): the target mRNA inhibition (SK-MEL-28, 4 µM) was determined as 0%.

Consider CTTAGTCAGAATCTGT (sugars k3 d10 k3, PS), for which the target mRNA inhibition (MM.1R, 1 µM) is 1%. On to ATGCTGAACCCCACAG (sugars k3 d10 k3, PS), for which, under “MM.1R, 1 µM”, the target mRNA inhibition turned out to be 16%. Regarding ACAGATAACGAGGTGC (sugars k3 d10 k3, PS), for the setting “SK-MEL-28, 4 µM”, the target mRNA inhibition was found to be 30%.
